“And” between values parts separate entries of the source, which are not always exact repeats. Equal values may be shown once. Marks after values point to notes of the source that are not given here.
How the values were obtained:
[1] = Bioavailability of oxycodone, codeine and dihydrocodeine from their succinyl valine ester prodrugs in the dog (oral gavage, two-way crossover); settings: dogs, oral gavage; for T>50%Cmax of dihydrocodeine: 1 mg free base equivalents dihydrocodeine/kg; for T>50%Cmax of codeine: 1 mg free base equivalents codeine/kg
Description: The characteristics of the test animals are set out in Table 10, below.
Blood samples were taken at various times after administration and submitted to analysis for the parent drug and pro-drug using a validated LC-MS-MS assay. Pharmacokinetic parameters derived from the plasma analytical data were determined using Win Nonlin.

[2] = In vitro stability of dicarboxylate amino acid ester prodrugs in simulated gastric and intestinal juice, distilled water and pH 10 buffer (HPLC); settings: for Simulated gastric fluid (pH 1.1): % remaining after 2 h/37° C.: pH 1.1, 2 h; for Distilled water (pH 5.9): % remaining after 2 h/20° C.: pH 5.9, 2 h; for Simulated intestinal fluid (pH 6.8): % remaining after 2 h/37° C.: pH 6.8, 2 h; for pH 10.0 buffer: % remaining after 2 h/20° C.: pH 10.0, 2 h
gut motility in the rat = assay: Charcoal propulsion test of GI motility in the rat; assay type: in vivo; settings: oral
Description: Test treatments were administered to groups of up to 10 rats fasted overnight prior to the test.
Test treatments were administered orally 60 minutes prior to a 2.0 mL oral dose of a 10% suspension of charcoal in 5% gum arabic. Thirty minutes after dosing with charcoal, the rats were sacrificed and the entire gastro-intestinal tract quickly and carefully removed. The distance the charcoal meal had traveled from the pyloric sphincter toward the caecum was measured and expressed as a percentage of both the total gut length and the length of the small intestine.

[3] = Stability of meptazinol dicarboxylate bridged amino acid prodrugs in simulated gastric and intestinal juice and pH 7.4 buffer; assay type: physicochemical; settings: for 2 h stability in pH7.4 buffer (37° C.), Conversion to meptazinol: pH 7.4 buffer
Text: Initially the inherent chemical and biological stability of various dicarboxylate bridged amino acid prodrugs of meptazinol, was investigated under the conditions prevailing in the GI tract. Premature hydrolysis of the prodrug in the gut lumen prior to absorption would reduce the opportunity for transient protection of the drug during its passage though the liver and the desired reduction in first pass metabolism.
The remaining concentrations of the prodrug (and also drug released) were then assayed by HPLC. Additionally their chemical stability was evaluated in pH 7.4 buffer for 2 h 37° C.

[4] = Plasma pharmacokinetics of meptazinol dicarboxylate linked prodrugs after oral gavage to cynomolgus monkeys; assay type: in vivo, cynomolgus monkey; settings: 1 mg meptazinol base equivalents/kg; for Monkey Cmax (plasma meptazinol): meptazinol level; for improvement in systemic levels of meptazinol: monkey, oral gavage
[5] = Plasma pharmacokinetics of meptazinol dicarboxylate linked prodrugs after oral gavage to dogs; assay type: in vivo, dog; settings: 1 mg meptazinol base equivalents/kg; for Dog Cmax (plasma meptazinol): meptazinol level
[6] = simulated intestinal fluid, 2 h
[7] = cynomolgus monkey, oral gavage of prodrug
[8] = cynomolgus monkey, oral gavage of prodrug, prodrug level, BLQ = below 0.5 ng/mL
[9] = dog, oral gavage of prodrug, prodrug level, BLQ = below 0.5 ng/mL

SMILES | 2 h stability in pH7.4 buffer (37° C.), Conversion to meptazinol ([3]; 2 h) | 1 h stability in simulated gastric fluid (37° C.), Conversion to meptazinol [3] | 2 h stability in simulated intestinal fluid (37° C.), Conversion to meptazinol [3, 6] | Monkey Cmax (plasma meptazinol) [4, 7] | Monkey Cmax (plasma prodrug levels, in brackets) [4, 8] | Dog Cmax (plasma meptazinol) ([5]; dog, oral gavage of prodrug) | Dog Cmax (plasma prodrug levels, in brackets) [5, 9] | further results
COc1ccc2c3c1O[C@H]1[C@@H](OC(=O)CCC(=O)NC(C(=O)O)C(C)C)CCC4[C@@H](C2)N(C)CC[C@@]341 (stereo in doubt) [dihydrocodeine-[succinyl-(S)-valine]ester] |  |  |  |  |  |  |  | T>50%Cmax of dihydrocodeine ([1]; individual dogs 1-5): 3 h (2×) and 2 h and 1 h (2×); T>50%Cmax of dihydrocodeine ([1]; median (n=5)): 2^a h; Simulated gastric fluid (pH 1.1): % remaining after 2 h/37° C. [2]: 100%; Distilled water (pH 5.9): % remaining after 2 h/20° C. [2]: 100%; Simulated intestinal fluid (pH 6.8): % remaining after 2 h/37° C. [2]: 100%; pH 10.0 buffer: % remaining after 2 h/20° C. [2]: 98%; % change from vehicle-treated animals, small intestine (gut motility in the rat; 10 mg/kg): −17.4%; % change from vehicle-treated animals, total gut length (gut motility in the rat; 10 mg/kg): −16.6%; % change from vehicle-treated animals, small intestine (gut motility in the rat; 30 mg/kg): −8.5%; % change from vehicle-treated animals, total gut length (gut motility in the rat; 30 mg/kg): −8.5%; % change from vehicle-treated animals, small intestine (gut motility in the rat; 100 mg/kg): −13.3%; % change from vehicle-treated animals, total gut length (gut motility in the rat; 100 mg/kg): −12.9%; % change from vehicle-treated animals, small intestine (gut motility in the rat; 300 mg/kg): −35.7%; % change from vehicle-treated animals, total gut length (gut motility in the rat; 300 mg/kg): −35.3%
COc1ccc2c3c1O[C@H]1[C@@H](O)C=C[C@H]4[C@@H](C2)N(C)CC[C@@]341.Cl [Codeine HCl, reference compound] |  |  |  |  |  |  |  | T>50%Cmax of codeine ([1]; individual dogs 1-5, HCl): 1.5 h (3×) and 0.5 h (2×); T>50%Cmax of codeine ([1]; median (n=5)): 1.5^a h
COc1ccc2c3c1O[C@H]1[C@@H](OC(=O)CCC(=O)N[C@H](C(=O)O)C(C)C)C=CC4[C@@H](C2)N(C)CC[C@@]341 (stereo partly drawn) [Codeine-[succinyl-(S)-valine] ester, codeine-[succinyl-(S)-valine]ester] |  |  |  |  |  |  |  | T>50%Cmax of codeine ([1]; individual dogs 1-5): 2 h (4×) and 1 h; T>50%Cmax of codeine ([1]; median (n=5)): 2^a h; Simulated gastric fluid (pH 1.1): % remaining after 2 h/37° C. [2]: 99%; Distilled water (pH 5.9): % remaining after 2 h/20° C. [2]: 100%; Simulated intestinal fluid (pH 6.8): % remaining after 2 h/37° C. [2]: 98%; pH 10.0 buffer: % remaining after 2 h/20° C. [2]: 92%; % change from vehicle-treated animals, small intestine (gut motility in the rat; 10 mg/kg): −9.7%; % change from vehicle-treated animals, total gut length (gut motility in the rat; 10 mg/kg): −9.3%; % change from vehicle-treated animals, small intestine (gut motility in the rat; 30 mg/kg): −15.7%; % change from vehicle-treated animals, total gut length (gut motility in the rat; 30 mg/kg): −15.1%; % change from vehicle-treated animals, small intestine (gut motility in the rat; 100 mg/kg): −16.4%; % change from vehicle-treated animals, total gut length (gut motility in the rat; 100 mg/kg): −15.6%
CCC1(c2cccc(OC(=O)CC(C)(C)CC(=O)Nc3ccc(C(=O)O)cc3)c2)CCCCN(C)C1 (stereo not drawn) [Meptazinol [3,3-dimethyl-glutaryl-PABA]ester] | 93% | 1% | 5% | 1.3 ng/mL | BLQ | 9.4 ng/mL | 25 ng/mL | improvement in systemic levels of meptazinol [4]: not seen in the monkey; systemic levels of meptazinol versus expected Cmax after the drug itself ([5]; dog, oral gavage): improved systemic levels of meptazinol
CCC1(c2cccc(OC(=O)C=CC(=O)Nc3ccc(C(=O)O)cc3)c2)CCCCN(C)C1 (stereo not drawn) [Meptazinol [fumaryl-PABA] ester] | 47% | 2% | 6% | 1.4 ng/mL | BLQ | 1.5 ng/mL | BLQ | 
CCC1(c2cccc(OC(=O)CCCC(=O)Nc3ccc(C(=O)O)cc3)c2)CCCCN(C)C1 (stereo not drawn) [Meptazinol [glutaryl-PABA] ester] | 80% | 5% | 6% | 1.5 ng/mL | 1.7 ng/mL | 3.4 ng/mL | 6.7 ng/mL | 
CCC1(c2cccc(OC(=O)C(C)(C)CC(=O)N[C@H](C(=O)O)C(C)C)c2)CCCCN(C)C1 (stereo partly drawn) [Meptazinol-[2,2-dimethylsuccinyl-(S)-valine] ester] | 2% |  | 3% | 0.4 ng/mL | 100 ng/mL | 0.9 ng/mL | 25 ng/mL | 
CCC1(c2cccc(OC(=O)CC(C)(C)CC(=O)N[C@H](C(=O)O)C(C)C)c2)CCCCN(C)C1 (stereo partly drawn) [Meptazinol-[3,3-dimethyl-glutaryl-(S)-valine] ester] |  |  |  |  |  |  |  | Cmax ([4]; plasma, cynomolgus monkey, oral gavage of prodrug, prodrug level, BLQ = below 0.5 ng/mL, read-out: Monkey Cmax (plasma prodrug levels, in brackets)): 43 ng/mL; Cmax ([5]; beagle, plasma, dog, oral gavage of prodrug, prodrug level, BLQ = below 0.5 ng/mL, read-out: Dog Cmax (plasma prodrug levels, in brackets)): 116 ng/mL; systemic levels of the prodrug ([5]; oral gavage): good systemic levels of the prodrug
CCC1(c2cccc(OC(=O)CC(C)(C)CC(=O)NCC(=O)O)c2)CCCCN(C)C1 (stereo not drawn) [Meptazinol-[3,3-dimethylglutaryl-glycine] ester] | 2% | 4% | 4% | 1.1 ng/mL | 18 ng/mL | 0.5 ng/mL | 29 ng/mL | 
CCC1(c2cccc(OC(=O)/C=C/C(=O)N[C@H](C(=O)O)C(C)C)c2)CCCCN(C)C1 (stereo partly drawn) [Meptazinol-[fumaryl-(S)-valine] ester] |  |  |  |  | BLQ |  | BLQ | 
CCC1(c2cccc(OC(=O)CCC(=O)N3CCC[C@H]3C(=O)O)c2)CCCCN(C)C1 (stereo partly drawn) [Meptazinol-[succinyl-(S)-proline] ester] | 4% | 4% | 4% | 2.0 ng/mL | 16 ng/mL | 0.7 ng/mL | 36 ng/mL | 
COc1ccc2c3c1O[C@H]1[C@@H](O)C=C[C@H]4[C@@H](C2)N(C)CC[C@@]341 [codeine, reference compound] |  |  |  |  |  |  |  | T>50%Cmax of codeine ([1]; median (n=5)): 1.2 h; delay of the passage of the charcoal meal (gut motility) (gut motility in the rat; 30 mg/kg or equimolar dose): greater than 30%
CCC1(c2cccc(OC(=O)c3ccccc3C(=O)N[C@@H](Cc3ccccc3)C(=O)O)c2)CCCCN(C)C1.O=C(O)C(F)(F)F (stereo partly drawn) [meptazinol [phthalyl-(S)-phenylalanine]ester trifluoroacetate] | 72% | 3% | 30% |  | BLQ | 9.1 ng/mL | 71 ng/mL | degradation in 2 h in simulated intestinal fluid ([3]; simulated intestinal fluid, 2 h, 37° C.): ~30%; improvement in systemic levels of meptazinol [4]: not seen in the monkey; systemic levels of meptazinol versus expected Cmax after the drug itself ([5]; dog, oral gavage): improved systemic levels of meptazinol

Source: patent publication US20100286186A1, “NOVEL DICARBOXYLIC ACID LINKED AMINO ACID AND PEPTIDE PRODRUGS OF OPIOIDS AND USES THEREOF” (Shire LLC, priority 2009, published 2010)
